The Km is the concentration of substrate that gives half-maximal velocity.

The experiment can be described thus: Km was determined.

In the case of `CC(=O)CCCC[C@@H]1SCC2NC(=O)NC21` (some centres not stated), the Michaelis constant (Km) was 175 µM.

Consider `N[C@@H](Cc1ccccc1)C(=O)Nc1ccc([N+](=O)[O-])cc1`, for which the Km was found to be 750 µM.

The values are drawn from ChEMBL document CHEMBL1146724, “Enzyme cleavable and biotinylated photoaffinity ligand with diazirine” (Bioorg Med Chem Lett, 2004).
